Patent publication US8414885B2, “Methods and compositions for treating cancer” (priority 2009, dated 2013)
Peptide text beside a SMILES is read from it. * marks the point of attachment. Cbz = O=C(OCc1ccccc1)*; CH2F = FC*

Experiments:
Assay type in all cases: cell-based, human
A2058 cells = experiment: EtHD cell death with or without protease inhibitors, A2058; settings: A2058, delta-PK moi=0.5, 72 hrs p.i.; PD150606 100 μM or z-VAD-fmk 20 μM
Description: (§1) FIG. 7. Delta-PK induced melanoma cell death is both calpain and caspase-dependent. A. A2058 cells were infected with delta-PK (moi=0.5) or mock-infected with PBS and cultured without or with PD150606 (100 μM), z-VAD-fmk (20 µM) or both PD150606 and z-VAD-fmk. DMSO (28 mM) was used as vehicle control. Replicate cultures (n=3) were stained with EtHD at various times p.i. and the % staining cells calculated. B. A375 cells were infected with delta-PK (moi=0.5) in the absence or presence of inhibitors and stained with EtHD+. Delta-PK infected WI-38 cells and mock infected DMSO treated cells served as controls.
(§2) Cell death was determined by trypan blue exclusion and staining with ethidium homodimer-1 (EtHD), a cell impermeable red fluorescent nuclear stain that increases intensity after binding to the DNA of dead cells. […] Dead cells were counted by four independent hemacytometer counts. […] Stained cells were counted in five randomly selected 3 mm^2 fields (≧250 cells each), and the % positive cells was calculated relative to total number of cells imaged by phase contrast microscopy (Gober M D, Laing J M, Thompson S M, Aurelian L. The growth compromised HSV-2 mutant DeltaRR prevents kainic acid-induced apoptosis and loss of function in organotypic hippocampal cultures. Brain Res 2006; 1119: 26-39). […]

caspase-3 = experiment: Immunoblotting for caspase-3 activation in infected melanoma cells; settings: delta-PK infected cultures, PD150606 100 μM, 24 hrs p.i.
From the text: FIG. 6. Calpain and caspase-7 and caspace-3 are activated in delta-PK infected melanoma cells. […] Data were quantified by densitometry and expressed as the ratio of the p76/p80 and p28 densitometric units +/−SD, respectively. Representatives of three replicate experiments are shown (***p<0.001 vs. Mock). B. The immunoblots in FIG. 6A were sequentially stripped and re-probed with antibodies to activated caspase-7, activated caspase-3, and actin. Data were quantified by densitometry and results are expressed as densitometric units +/−SD (**p<0.01, ***p<0.001 vs. Mock). C. […]
Cultured cells were lysed with radioimmunoprecipitation buffer [RIPA; 20 mM Tris-HCl (pH 7.4), […], 1% Nonidet P-40, 0.1% sodium dodecyl sulfate (SDS), 0.5% sodium deoxycholate] supplemented with protease and phosphatase inhibitor cocktails (Sigma-Aldrich), and sonicated twice for 30 seconds at 25% output power with a sonicator ultrasonic processor (Misonix, Inc., Farmingdale, N.Y.). […] Protein concentration was determined by the bicinchoninic assay (Pierce, Rockford, Ill.), and 100 μg protein samples were resolved by SDS-polyacrylamide gel elecrophoresis (SDS-PAGE) and transferred to polyvinylidene fluoride membranes followed by immunoblotting. […] Quantitation was by densitometric scanning with the Bio-Rad GS-700 imaging densitometer (Bio-Rad, Hercules, Calif.). […]

A375 cells = experiment: EtHD cell death with or without protease inhibitors, A375; settings: A375, delta-PK moi=0.5, 72 hrs p.i.; PD150606 100 μM or z-VAD-fmk 20 μM
Description: as §1, §2

SMILES: O=C(O)/C(S)=C/c1ccc(I)cc1 [PD150606]
- % EtHD+ cells in delta-PK infected cultures in presence of inhibitor (A2058 cells): 30.7+/−2.8%
- effect of inhibitor on levels of caspase-3p17 cleavage product (caspase-3): increased
- % EtHD+ cells in delta-PK infected cultures in presence of inhibitor (A375 cells): 49.1+/−2.5%

SMILES: COC(=O)C[C@H](NC(=O)[C@H](C)NC(=O)[C@@H](NC(=O)OCc1ccccc1)C(C)C)C(=O)CF [z-VAD-fmk, benzyloxcarbonyl-Val-Ala-Asp-fluormethyl ketone] (Cbz-Val-Ala-Asp(OMe)-CH2F)
- % EtHD+ cells in delta-PK infected cultures in presence of inhibitor (A2058 cells): 35.8+/−2.5%
- % EtHD+ cells in delta-PK infected cultures in presence of inhibitor (A375 cells): 49.6+/−3.7%
